Experimental data reported in patent US10596103B2, “Drug delivery system for delivery of anti-virals” (Merck Sharp & Dohme B.V., priority 2013, dated 2020).

Experiment: Solubility of vicriviroc in EVA by partitioning experiments
Type: physicochemical
Experimental: The solubility of vicriviroc in EVA was determined by partitioning experiments. A small sample of polymer film (approximately 10 mg) was immersed in a saturated aqueous vicriviroc solution (5 mL PBS buffer pH 7). Once the film was immersed the drug diffused from the saturated solution into the film until an equilibrium was achieved. As a result the drug concentration of the aqueous solution decreased and the drug concentration in the film increased. The decrease of the drug concentration in the aqueous solution was continuously measured with a fiber optic probe (Rainbow Dynamic Dissolution Monitor).

For `COC[C@@H](c1ccc(C(F)(F)F)cc1)N1CCN(C2(C)CCN(C(=O)c3c(C)ncnc3C)CC2)C[C@@H]1C` [vicriviroc], the “Vicriviroc loading above which supersaturation occurs” value (in EVA 28) was “above 1.4 % by weight” and the “Solubility of vicriviroc in EVA 28” value (polymer film in saturated aqueous vicriviroc solution, PBS buffer pH 7, FIG. 14) was 1.2-1.4 wt %.
